Measured values: ChEMBL document CHEMBL3885881, “DrugMatrix”

Species on record: Rattus norvegicus
Experiment: DrugMatrix - Regimen: Daily Repeat
Type: toxicity, organism-based, Sprague-Dawley
Design: regimen Daily Repeat, gender Male, age 6-8 weeks
Settings: in vivo, po, route oral GAVAGE, vehicle .5 % CMC; for ABSOLUTE BASOPHIL / ABSOLUTE EOSINOPHIL / ABSOLUTE LYMPHOCYTE / ABSOLUTE MONOCYTE / ABSOLUTE SEGMENTED NEUTROPHIL / BASOPHIL / EOSINOPHIL / ERYTHROCYTE COUNT / HEMATOCRIT / HEMOGLOBIN / LEUKOCYTE COUNT / LYMPHOCYTE / MEAN CORPUSCULAR HEMOGLOBIN / MEAN CORPUSCULAR HEMOGLOBIN CONCENTRATION / MEAN CORPUSCULAR VOLUME / MONOCYTE / NEUTROPHIL / NUCLEATED RED BLOOD CELLS / PLATELET COUNT: tissue Blood; for ALANINE AMINOTRANSFERASE / ALBUMIN / ALKALINE PHOSPHATASE / ASPARTATE AMINOTRANSFERASE / BLOOD UREA NITROGEN / CARBON DIOXIDE / CHLORIDE / CHOLESTEROL / CREATINE PHOSPHOKINASE / CREATININE / GLUCOSE / LACTATE DEHYDROGENASE / LIPASE / PHOSPHORUS / POTASSIUM / SODIUM / TOTAL BILIRUBIN / TOTAL PROTEIN / URIC ACID: tissue Plasma
[1] = 0 mg/kg, 72 h, dose level Control, time 3 day
[2] = 0 mg/kg, 120 h, dose level Control, time 5 day
[3] = 10 mg/kg, 72 h, dose level Low, time 3 day

Structure (SMILES): O=C1CN=C(c2ccccc2Cl)c2cc([N+](=O)[O-])ccc2N1 [CLONAZEPAM]
- ABSOLUTE BASOPHIL [1]: 0 CELLS/uL
- ABSOLUTE EOSINOPHIL [1]: 0 CELLS/uL
- ABSOLUTE LYMPHOCYTE [1]: 12191.17 CELLS/uL
- ABSOLUTE MONOCYTE [1]: 183.17 CELLS/uL
- ABSOLUTE SEGMENTED NEUTROPHIL [1]: 1192.33 CELLS/uL
- BASOPHIL [1]: 0%
- EOSINOPHIL [1]: 0%
- ERYTHROCYTE COUNT [1]: 5.51 x10E6/uL
- HEMATOCRIT [1]: 35.45%
- HEMOGLOBIN [1]: 13.82 G/DL
- LEUKOCYTE COUNT [1]: 13.57 x10E3/uL
- LYMPHOCYTE [1]: 89.83%
- MEAN CORPUSCULAR HEMOGLOBIN [1]: 25.1 pg
- MEAN CORPUSCULAR HEMOGLOBIN CONCENTRATION [1]: 38.98 G/DL
- MEAN CORPUSCULAR VOLUME [1]: 64.42 fL
- MONOCYTE [1]: 1.33%
- NEUTROPHIL [1]: 8.83%
- NUCLEATED RED BLOOD CELLS [1]: 0 /100WBC
- PLATELET COUNT [1]: 1118.17 x10E3/uL
- ALANINE AMINOTRANSFERASE [1]: 55 u/L
- ALBUMIN [1]: 4.15 G/DL
- ALKALINE PHOSPHATASE [1]: 449.5 u/L
- ASPARTATE AMINOTRANSFERASE [1]: 112.83 u/L
- BLOOD UREA NITROGEN [1]: 17.33 mg/dL
- CARBON DIOXIDE [1]: 29.5 mmol/L
- CHLORIDE [1]: 101 MEQ/L
- CHOLESTEROL [1]: 70 mg/dL
- CREATINE PHOSPHOKINASE [1]: 1325.83 u/L
- CREATININE [1]: 0.18 mg/dL
- GLUCOSE [1]: 171.5 mg/dL
- LACTATE DEHYDROGENASE [1]: 386 u/L
- LIPASE [1]: 10 u/L
- PHOSPHORUS [1]: 11.57 mg/dL
- POTASSIUM [1]: 6.21 MEQ/L
- SODIUM [1]: 141.65 MEQ/L
- TOTAL BILIRUBIN [1]: 0.15 mg/dL
- TOTAL PROTEIN [1]: 5.75 G/DL
- URIC ACID [1]: 1.28 mg/dL
- ABSOLUTE BASOPHIL [2]: 0 CELLS/uL
- ABSOLUTE EOSINOPHIL [2]: 138.17 CELLS/uL
- ABSOLUTE LYMPHOCYTE [2]: 13283.17 CELLS/uL
- ABSOLUTE MONOCYTE [2]: 303.83 CELLS/uL
- ABSOLUTE SEGMENTED NEUTROPHIL [2]: 1308.17 CELLS/uL
- BASOPHIL [2]: 0%
- EOSINOPHIL [2]: 1%
- ERYTHROCYTE COUNT [2]: 5.32 x10E6/uL
- HEMATOCRIT [2]: 33.8%
- HEMOGLOBIN [2]: 13.63 G/DL
- LEUKOCYTE COUNT [2]: 15.03 x10E3/uL
- LYMPHOCYTE [2]: 88.33%
- MEAN CORPUSCULAR HEMOGLOBIN [2]: 25.68 pg
- MEAN CORPUSCULAR HEMOGLOBIN CONCENTRATION [2]: 40.35 G/DL
- MEAN CORPUSCULAR VOLUME [2]: 63.67 fL
- MONOCYTE [2]: 1.83%
- NEUTROPHIL [2]: 8.83%
- NUCLEATED RED BLOOD CELLS [2]: 0 /100WBC
- PLATELET COUNT [2]: 1097.5 x10E3/uL
- ALANINE AMINOTRANSFERASE [2]: 54.5 u/L
- ALBUMIN [2]: 4.27 G/DL
- ALKALINE PHOSPHATASE [2]: 337 u/L
- ASPARTATE AMINOTRANSFERASE [2]: 94.67 u/L
- BLOOD UREA NITROGEN [2]: 17 mg/dL
- CARBON DIOXIDE [2]: 28.33 mmol/L
- CHLORIDE [2]: 101.5 MEQ/L
- CHOLESTEROL [2]: 71.33 mg/dL
- CREATINE PHOSPHOKINASE [2]: 628.17 u/L
- CREATININE [2]: 0.19 mg/dL
- GLUCOSE [2]: 177.83 mg/dL
- LACTATE DEHYDROGENASE [2]: 500.5 u/L
- LIPASE [2]: 9.5 u/L
- PHOSPHORUS [2]: 12.3 mg/dL
- POTASSIUM [2]: 5.63 MEQ/L
- SODIUM [2]: 143.03 MEQ/L
- TOTAL BILIRUBIN [2]: 0.2 mg/dL
- TOTAL PROTEIN [2]: 6.02 G/DL
- URIC ACID [2]: 1.5 mg/dL
- ABSOLUTE BASOPHIL [3]: 0 CELLS/uL
- ABSOLUTE EOSINOPHIL [3]: 0 CELLS/uL
- ABSOLUTE LYMPHOCYTE [3]: 12266.67 CELLS/uL
- ABSOLUTE MONOCYTE [3]: 135.33 CELLS/uL
- ABSOLUTE SEGMENTED NEUTROPHIL [3]: 664.67 CELLS/uL
- BASOPHIL [3]: 0%
- EOSINOPHIL [3]: 0%
- ERYTHROCYTE COUNT [3]: 5.48 x10E6/uL
- HEMATOCRIT [3]: 35.23%
- HEMOGLOBIN [3]: 13.73 G/DL
- LEUKOCYTE COUNT [3]: 13.07 x10E3/uL
- LYMPHOCYTE [3]: 93.33%
- MEAN CORPUSCULAR HEMOGLOBIN [3]: 25.1 pg
- MEAN CORPUSCULAR HEMOGLOBIN CONCENTRATION [3]: 38.97 G/DL
- MEAN CORPUSCULAR VOLUME [3]: 64.3 fL
- MONOCYTE [3]: 1.33%
- NEUTROPHIL [3]: 5.33%
- NUCLEATED RED BLOOD CELLS [3]: 0 /100WBC
- PLATELET COUNT [3]: 1157.67 x10E3/uL
- ALANINE AMINOTRANSFERASE [3]: 58.33 u/L
- ALBUMIN [3]: 4.1 G/DL
- ALKALINE PHOSPHATASE [3]: 310 u/L
- ASPARTATE AMINOTRANSFERASE [3]: 85.33 u/L
- BLOOD UREA NITROGEN [3]: 17.67 mg/dL
- CARBON DIOXIDE [3]: 27.67 mmol/L
- CHLORIDE [3]: 101.67 MEQ/L
- CHOLESTEROL [3]: 69.33 mg/dL
- CREATINE PHOSPHOKINASE [3]: 333.33 u/L
- CREATININE [3]: 0.16 mg/dL
- GLUCOSE [3]: 163 mg/dL
- LACTATE DEHYDROGENASE [3]: 104.33 u/L
- LIPASE [3]: 10 u/L
- PHOSPHORUS [3]: 11.3 mg/dL
- POTASSIUM [3]: 6.13 MEQ/L
- SODIUM [3]: 142.3 MEQ/L
- TOTAL BILIRUBIN [3]: 0.1 mg/dL
- TOTAL PROTEIN [3]: 5.6 G/DL
- URIC ACID [3]: 1.73 mg/dL
